In patent US12459951B2, “Compounds that interact with RAS superfamily proteins for treatment of cancers, inflammatory diseases, rasopathies, and fibrotic disease” (SHY Therapeutics, LLC, priority 2022, dated 2025):

Key:
Akt phosphorylation = experiment: Akt Phosphorylation Assay (western blot), Panc-1; assay type: cell-based, human; details: at 10 μM, * = activation
Procedure: Protocol for Western Akt Cell-Based Phosphorylation Assay
This assay is referred to as the “Akt Phosphorylation Assay” throughout this application.
Human tumor-derived pancreatic cancer cell line Panc-1 (expressing KRas G12D mutant) was purchased from American Type Culture Collection and grown in complete DMEM-High Glucose supplemented with penicillin (100 U/mL), streptomycin (100 μg/mL), and 10% heat-inactivated FBS at 37° C. in a humidified incubator with 5% CO2.
Method 1: Cells were plated at 350000 cells/well density in a 12-well plate, allowed 3 hours to adhere to the plate, then starved in the appropriate medium in the presence of 0.5% FBS overnight. The small molecules to be tested were added to the cells in the final concentration of 10 μM in the presence of 0.3% DMSO for 6 hours incubation at 37° C. Next, cells were stimulated with 1.5 ng/ml EGF for 15 minutes then cells were lysed with lysis buffer containing 1% Triton X-100, EDTA, and Halt™ Protease & Phosphatase Inhibitor Cocktail (Thermo Scientific). Protein concentration was assessed by BCA protein assay (Thermo Scientific). Phosphorylation level of Akt was determined by western blot.
Method 2: Cells were plated at 350000 cells/well density in a 12-well plate in 10% FBS. The next day small molecules to be tested were added to the cells in the final concentration of 10 μM in the presence of 0.3% DMSO for 6 hours incubation at 37° C. For IC50 value determination, serial dilutions of compounds were added to cells under the same conditions. Next, cells were lysed with lysis buffer containing 1% Triton X-100, EDTA, and Halt™ Protease & Phosphatase Inhibitor Cocktail (Thermo Scientific). Protein concentration was assessed by BCA protein assay (Thermo Scientific). Phosphorylation level of Akt was determined by western blot.
Western blot protocol: Equal amounts of protein (15-50 μg) were separated by SDS-PAGE and transferred to nitrocellulose membranes (Invitrogen by Thermo Fisher Scientific). The membrane was stained with Ponceau S Stain (Boston BioProducts) to verify uniform protein loading. Membranes were blocked with 10% milk and phosphorylation levels of Akt were assessed by incubating overnight at 4° C. with anti-phospho-Akt (Ser473) antibody (Cell Signaling) followed by HRP-conjugated secondary antibody (Jackson Immunoresearch, West Grove, PA). Bands were incubated in Amersham ECL Prime Western Blotting Detection Reagent (GE Healthcare) and visualized using the ChemiDoc MP imaging system (Bio-Rad).

KRas G12D mutant = experiment: Ras GTP Binding Domain Inhibition Assay (Ras Superfamily Assay); details: 20 μM compound; for KRas G12D mutant + SOS: % inh.: with SOS; for KRas G12D mutant: % inh.: without SOS
Description: (§1) Biological Example 3: Ras GTP Binding Domain Inhibition Assay
(§2) The assays described in Example 3 are collectively referred to as the “Ras Superfamily Assay” throughout this application.
(§3) A Ras Superfamily Activity Assay (as disclosed in International Application No. PCT/US2018/038613, filed Jun. 20, 2018, which is incorporated by reference in its entirety) was used as a specific assay to evaluate compounds against the following for the following Ras Superfamily proteins: KRas wild type, KRas Q61H mutant, KRas G12C mutant, KRas G12D mutant, Rac-1, and Rho-A.
(§4) • 25 mM Tris-HCl, pH 7.4 • 27 mM KCl • 137 mM NaCl • 1 mM MgCl2 • 1 mM DTT Buffer-II: • 50 mM Tris-HCl, pH 7.0 • 1 mM MgCl2 • 1 mM DTT
(§5) The small GTPases proteins: KRas wild type. KRas Q61H mutant, KRas G12C mutant, KRas G12D mutants, Rac-1, and Rho-A were expressed as His-tagged proteins. In addition, the Guanosine nucleotide Exchange Factor (GEF) Sos protein (residues 556-1049) was expressed as a His-tagged protein. In cells, the guanine nucleotide exchange factor Sos protein promotes activation of Ras proteins by stimulating an exchange of GDP for GTP. The inclusion of Sos to the Ras GTP binding domain inhibition assay may be considered as an alternative representation of physiological cellular conditions for evaluating the inhibitory activity of some of the tested small molecules.
(§6) For the assay, all purified small GTPases proteins were diluted in Buffer-I or Buffer-II to a final concentration of 10-30 μg/mL. 200 μL of each diluted protein was added to a nickel-coated 96-well plate and incubated overnight at 4° C. Then the protein solution was discarded and 200 μL of Buffer-I or Buffer-II was added to each well in the presence of 1% DMSO. Compounds to be tested were added to the protein-coated wells at final concentration of 20 μM, and incubated for 3 hours at room temperature with and without 10-30 μg/mL of Sos added to the final hour of the incubation. When performing IC50 measurements a serial dilution of all tested concentrations was added. Then Cy3-GTP or Cy5-GTP was added to each well to a final concentration of 100 nM. The labeled GTP was incubated for 45 minutes at room temperature. Following GTP incubation, wells were washed 3× in Buffer-I or Buffer-II and 200 μL of Buffer-I or Buffer-II was added to each well. Following washes, the amount of bound labeled-GTP was measured using a SpectraMax M3 (Molecular Devices).

KRas wild type = experiment: as above; details: 20 μM compound; for KRas wild type + SOS: % inh.: with SOS; for KRas wild type: % inh.: without SOS
Description: as §1, §2, §3, §4, §5, §6

Rac-1 = target: T1, Rac-1 (Homo sapiens, UniProt P63000); experiment: as above; details: read-out: Rac-1: % inh.
T1 construct: made in house
Description: as §1, §2, §3, §4, §5, §6

KRas G12D mutant + SOS: % inh. (KRas G12D mutant)	KRas G12D mutant: % inh. (KRas G12D mutant)	KRas wild type + SOS: % inh. (KRas wild type)	KRas wild type: % inh. (KRas wild type)	inhibition at 20 µM (Rac-1)	Compound	% inh of Akt phosphorylation in Panc-1 (Akt phosphorylation)
0 (0 = 0% inhibition)	0 (0 = 0% inhibition)	0 (0 = 0% inhibition)	0 (0 = 0% inhibition)	0%	CO[C@H]1CC[C@@H](Nc2nc(-c3ccccn3)nn3cc(-c4ccn(C(C)C)n4)c(C)c23)C1 (racemic) [Compound 9, rac 6-(1-Isopropyl-1H-pyrazol-3-yl)-N-((1R,3S)-3-methoxycyclopentyl)-5-methyl-2-(pyridin-2-yl)pyrrolo[2,1-f][1,2,4]triazin-4-amine]	0 (0% inhibition)
A (A = 1-25% inhibition)	B (B = 26-49% inhibition)	0 (0 = 0% inhibition)	B (B = 26-49% inhibition)	1 to 25%	CO[C@@H]1CC[C@@H](Nc2nc(-c3nccn3C)nn3cc(-c4ccn(C)n4)c(C)c23)C1 (racemic) [Compound 132, rac N-((1R,3R)-3-Methoxycyclopentyl)-5-methyl-2-(1-methyl-1H-imidazol-2-yl)-6-(1-methyl-1H-pyrazol-3-yl)pyrrolo[2,1-f][1,2,4]triazin-4-amine]	A (1-25% inhibition)
0 (0 = 0% inhibition)	B (B = 26-49% inhibition)	0 (0 = 0% inhibition)	A (A = 1-25% inhibition)	1 to 25%	CO[C@H]1CC[C@@H](Nc2nc(-c3nccn3C)nn3cc(-c4ccn(C)n4)c(C)c23)C1 (racemic) [Compound 133, rac N-((1R,3S)-3-Methoxycyclopentyl)-5-methyl-2-(1-methyl-1H-imidazol-2-yl)-6-(1-methyl-1H-pyrazol-3-yl)pyrrolo[2,1-f][1,2,4]triazin-4-amine]	B (26-49% inhibition)
D (D = 76-100% inhibition)	D (D = 76-100% inhibition)	B (B = 26-49% inhibition)	B (B = 26-49% inhibition)	50 to 75%	CO[C@@H]1CC[C@@H](Nc2nc(-c3nccn3C)nn3cc(-c4cccnc4)c(C)c23)C1 (racemic) [Compound 154, rac N-((1R,3R)-3-methoxy-cyclopentyl)-5-methyl-2-(1-methyl-1H-imidazol-2-yl)-6-(pyridin-3-yl)pyrrolo[2,1-f][1,2,4]triazin-4-amine]	B* (26-49% activation)
A (A = 1-25% inhibition)	A (A = 1-25% inhibition)	A (A = 1-25% inhibition)	A (A = 1-25% inhibition)	1 to 25%	CO[C@H]1CC[C@@H](Nc2nc(-c3nccn3C)nn3cc(-c4cccnc4)c(C)c23)C1 (racemic) [Compound 155, rac N-((1R,3S)-3-methoxy-cyclopentyl)-5-methyl-2-(1-methyl-1H-imidazol-2-yl)-6-(pyridin-3-yl)pyrrolo[2,1-f][1,2,4]triazin-4-amine]	A (1-25% inhibition)
0 (0 = 0% inhibition)	0 (0 = 0% inhibition)	0 (0 = 0% inhibition)	0 (0 = 0% inhibition)	0%	COc1cc(-c2cn3nc(-c4nccn4C)nc(N[C@@H]4CC[C@@H](OC)C4)c3c2C)ccn1 (racemic) [Compound 163, rac N-((1R,3R)-3-Methoxycyclopentyl)-6-(2-methoxypyridin-4-yl)-5-methyl-2-(1-methyl-1H-imidazol-2-yl)pyrrolo[2,1-f][1,2,4]triazin-4-amine]	A* (1-25% activation)
0 (0 = 0% inhibition)	A (A = 1-25% inhibition)	A (A = 1-25% inhibition)	A (A = 1-25% inhibition)	1 to 25%	COc1cc(-c2cn3nc(-c4nccn4C)nc(N[C@@H]4CC[C@H](OC)C4)c3c2C)ccn1 (racemic) [Compound 164, rac N-((1R,3S)-3-Methoxycyclopentyl)-6-(2-methoxypyridin-4-yl)-5-methyl-2-(1-methyl-1H-imidazol-2-yl)pyrrolo[2,1-f][1,2,4]triazin-4-amine]	A* (1-25% activation)
C (C = 50-75% inhibition)	D (D = 76-100% inhibition)	C (C = 50-75% inhibition)	D (D = 76-100% inhibition)	50 to 75%	COc1cc(Nc2nc(-c3nccn3C)nn3cc(-c4ccn(C(C)C)n4)c(C)c23)ncn1 [Compound 6, 6-(1-Isopropyl-1H-pyrazol-3-yl)-N-(6-methoxypyrimidin-4-yl)-5-methyl-2-(1-methyl-1H-imidazol-2-yl)pyrrolo[2,1-f][1,2,4]triazin-4-amine]	0 (0% inhibition)
A (A = 1-25% inhibition)	0 (0 = 0% inhibition)	0 (0 = 0% inhibition)	A (A = 1-25% inhibition)	0%	Cc1c(-c2ccn(C(C)C)n2)cn2nc(-c3ccccn3)nc(O)c12 [Compound 8, 6-(1-Isopropyl-1H-pyrazol-3-yl)-5-methyl-2-(pyridin-2-yl)pyrrolo[2,1-f][1,2,4]triazin-4-ol]	0 (0% inhibition)
–	–	–	–	0%	Cc1c(-c2ccn(C3CC3)n2)cn2nc(-c3nccn3C)nc(Nc3cc(OCCN(C)C)ccn3)c12 [Compound 147, 6-(1-Cyclopropyl-1H-pyrazol-3-yl)-N-(4-(2-(dimethylamino)ethoxy)pyridin-2-yl)-5-methyl-2-(1-methyl-1H-imidazol-2-yl)pyrrolo[2,1-f][1,2,4]triazin-4-amine]	A* (1-25% activation)
–	–	–	–	0%	Cc1c(-c2ccn(C3CC3)n2)cn2nc(-c3nccn3C)nc(Nc3cc(OCCCN(C)C)ccn3)c12 [Compound 148, 6-(1-Cyclopropyl-1H-pyrazol-3-yl)-N-(4-(3-(dimethylamino)propoxy)pyridin-2-yl)-5-methyl-2-(1-methyl-1H-imidazol-2-yl)pyrrolo[2,1-f][1,2,4]triazin-4-amine]	A (1-25% inhibition)
